# ChEMBL document CHEMBL5356934, “Antibacterial activities of anthraquinones: structure-activity relationships and action mechanisms” (RSC Med Chem, 2023)
# Key:
# Staphylococcus aureus [1] = assay: Antibacterial activity against Staphylococcus aureus ATCC 25923 assessed as reduction in microbial growth after 24 hrs by spectrophotometric method; assay type: functional
# Acetylcholinesterase = Acetylcholinesterase (Homo sapiens, UniProt P22303); assay: Inhibition of Acetylcholinesterase (unknown origin)
# Pseudomonas aeruginosa [2] = assay: Antibacterial activity against Pseudomonas aeruginosa assessed as reduction in bacterial growth by broth microdilution method; assay type: functional
# Escherichia coli [3] = assay: Antibacterial activity against Escherichia coli ATCC 25922 assessed as bacterial growth inhibition measured after 48 hrs by resazurin assay; assay type: functional
# Haemophilus parasuis = assay: Antibacterial activity against Haemophilus parasuis clinical isolates assessed as bacterial growth inhibition measured after 16 to 24 hrs by broth microdilution assay; assay type: functional; settings: Glaesserella parasuis; time 16-24 hrs
# [4] = tested on: Mycobacterium tuberculosis; assay: Anti-mycobacterial activity against Mycobacterium tuberculosis H37Ra assessed as reduction in bacterial growth […]; assay type: functional
# Staphylococcus aureus [5] = assay: Antibacterial activity against Staphylococcus aureus ATCC 25923 assessed as reduction in bacterial growth incubated for 24 hrs by serial dilution method; assay type: functional
# Staphylococcus aureus [6] = assay: Antibacterial activity against Staphylococcus aureus 4125 assessed as reduction in bacterial growth; assay type: functional
# Pseudomonas aeruginosa [7] = assay: Antibacterial activity against Pseudomonas aeruginosa TISTR 781 assessed as reduction in bacterial growth by broth microdilution method; assay type: functional
# Staphylococcus aureus [8] = assay: Antibiofilm activity against Staphylococcus aureus CMCC 26003 assessed as reduction in live bacteria in biofilm formation incubated for 24 hrs by crystal violet staining based analysis; assay type: functional
# Bacillus subtilis = assay: Antibacterial activity against Bacillus subtilis ATCC 6051 assessed as reduction in bacterial growth incubated for 24 hrs by broth micro-dilution method; assay type: functional
# Bacillus cereus [9] = assay: Antibacterial activity against Bacillus cereus TISTR 687 incubated for 16 to 18 hrs by Mueller-Hinton broth based two-fold serial dilution method; assay type: functional; settings: time 16-18 hrs
# Salmonella typhimurium [10] = assay: Antibacterial activity against Salmonella typhimurium TISTR 780 assessed as inhibition of bacterial growth incubated for 16 to 18 hrs by Mueller-Hinton broth based two-fold serial dilution method; assay type: functional, Salmonella enterica subsp. enterica serovar Typhimurium; settings: Salmonella enterica, time 16-18 hrs
# Streptococcus suis = assay: Antibacterial activity against Streptococcus suis ATCC 700794 assessed as bacterial growth inhibition incubated for 24 hrs by broth micro-dilution method; assay type: functional
# Bacillus sp. = assay: Antibacterial activity against Bacillus sp. assessed as inhibition of bacterial growth; assay type: functional; settings: Bacillus sp. (in: firmicutes)
# Pseudomonas aeruginosa [11] = assay: Antibacterial activity against Pseudomonas aeruginosa TISTR 781 assessed as inhibition of bacterial growth incubated for 16 to 18 hrs by Mueller-Hinton broth based two-fold serial dilution method; assay type: functional; settings: time 16-18 hrs
# Staphylococcus aureus [12] = assay: Antibacterial activity against methicillin resistant Staphylococcus aureus ATCC 33592 incubated for 24 hrs by Mueller-Hinton broth based assay; assay type: functional
# Pseudomonas aeruginosa [13] = assay: Antibacterial activity against wild type Pseudomonas aeruginosa ATCC 27853 after 24 hrs by microbroth dilution method; assay type: functional
# Staphylococcus aureus [14] = assay: Antibacterial activity against methicillin-resistant Staphylococcus aureus CGMCC1.12483 assessed as reduction in bacterial growth by CLSI protocol based broth microdilution method; assay type: functional
# Vibrio campbellii = assay: Antibacterial activity against Vibrio campbellii MCCC E333 assessed as cell growth inhibition measured after 24 hrs by resazurin dye based assay; assay type: functional
# Staphylococcus aureus [15] = assay: Antibacterial activity against methicillin-resistant Staphylococcus aureus ATCC 43300 assessed as reduction in bacterial growth by CLSI protocol based broth microdilution method; assay type: functional
# Vibrio rotiferianus = assay: Antibacterial activity against Vibrio rotiferianus MCCC E385 assessed as cell growth inhibition measured after 24 hrs by resazurin dye based assay; assay type: functional
# Bacillus cereus [16] = assay: Antibacterial activity against Bacillus cereus; assay type: functional
# Staphylococcus aureus [17] = assay: Antibacterial activity against methicillin-resistant Staphylococcus aureus J-108; assay type: functional
# Enterococcus faecium [18] = assay: Antibacterial activity against vancomycin-resistant Enterococcus faecium; assay type: functional
# Enterococcus faecium [19] = assay: Antibacterial activity against vancomycin susceptible Enterococcus faecium119-39A assessed as inhibition of bacterial growth by broth microdilution method; assay type: functional; settings: 119-39A
# Staphylococcus aureus [20] = assay: Antibacterial activity against methicillin-susceptible Staphylococcus aureus assessed as reduction in bacterial growth; assay type: functional
# Escherichia coli [21] = assay: Antibacterial activity against Escherichia coli assessed as reduction in bacterial growth incubated for 12 hrs by microdilution method; assay type: functional
# Epidermophyton floccosum = assay: Antifungal activity against Epidermophyton floccosum measured after 96 hrs by two fold serial dilution technique; assay type: functional
# Pseudomonas aeruginosa [22] = assay: Antibacterial activity against Pseudomonas aeruginosa assessed as zone of inhibition; assay type: functional
# Candida albicans = assay: Antifungal activity against Candida albicans assessed as fungal growth inhibition by broth microdilution method; assay type: functional
# Bacillus cereus [23] = assay: Antibacterial activity against Bacillus cereus assessed as reduction in microbial growth after 18 hrs by MTT based broth dilution method; assay type: functional
# Escherichia coli [24] = assay: Antibacterial activity against Escherichia coli assessed as zone of inhibition; assay type: functional
# Pseudomonas aeruginosa [25] = assay: Antibacterial activity against Pseudomonas aeruginosa assessed as reduction in bacterial growth incubated for 24 hrs by broth microdilution method; assay type: functional
# Vibrio harveyi = assay: Antimicrobial activity against Vibrio harveyi assessed as bacterial growth inhibition; assay type: functional
# [26] = tested on: Staphylococcus epidermidis; assay: Antibacterial activity against Staphylococcus epidermidis assessed as reduction in microbial growth; assay type: functional
# Aeromonas hydrophila [27] = assay: Antibacterial activity against Aeromonas hydrophila; assay type: functional
# Escherichia coli [28] = assay: Antimicrobial activity against Escherichia coli assessed as reduction in microbial growth; assay type: functional
# [29] = tested on: Mycobacterium tuberculosis; assay: Antimycobacterial activity against Mycobacterium tuberculosis H37Ra assessed as reduction in microbial growth; assay type: functional
# Cryptococcus neoformans = assay: Antifungal activity against Cryptococcus neoformans assessed as reduction in microbial growth; assay type: functional
# Trichophyton rubrum = assay: Antifungal activity against Trichophyton rubrum assessed as fungal growth inhibition; assay type: functional
# Proteus vulgaris = assay: Antimicrobial activity against Proteus vulgaris assessed as inhibition of bacterial growth; assay type: functional
# Klebsiella aerogenes = assay: Antimicrobial activity against Enterobacter aerogenes ATCC 45102; assay type: functional
# Aeromonas hydrophila [30] = assay: Antibacterial activity against Aeromonas hydrophila IB101; assay type: functional
# Neisseria gonorrhoeae = assay: Antibacterial activity against resistant Neisseria gonorrhoeae assessed inhibition of bacterial growth; assay type: functional
# Rothia kristinae = assay: Antibacterial activity against Rothia kristinae assessed as reduction in microbial growth; assay type: functional
# Staphylococcus aureus [31] = assay: Antibacterial activity against Staphylococcus aureus assessed as reduction in microbial growth; assay type: functional
# Staphylococcus aureus [32] = assay: Antibacterial activity against Staphylococcus aureus assessed as diameter of inhibition zone; assay type: functional
# Staphylococcus aureus [33] = assay: Antibacterial activity against Staphylococcus aureus ATCC 25923 assessed as reduction in microbial growth incubated for 24 hrs by broth micro-dilution method; assay type: functional
# Salmonella = assay: Antibacterial activity against Salmonella ATCC 12022 assessed as inhibition of bacterial growth by standard broth microdilution method; assay type: functional
# Escherichia coli [34] = assay: Antibacterial activity against Escherichia coli ATCC 8730 assessed as reduction in bacterial growth; assay type: functional
# Porphyromonas gingivalis = assay: Antibacterial activity against Porphyromonas gingivalis ATCC 33277 assessed as reduction in bacterial growth incubated for 24 hrs by micro-dilution method; assay type: functional
# Streptococcus mutans = assay: Antibacterial activity against Streptococcus mutans ATCC 25175 assessed as inhibition of bacterial growth incubated for 18 to 20 hrs by CLSI protocol based broth microdilution method; assay type: functional; settings: time 18-20 hrs
# Staphylococcus aureus [35] = assay: Antibacterial activity against Staphylococcus aureus NCTC 11994 assessed as reduction in bacterial growth; assay type: functional
# Salmonella typhimurium [36] = assay: Antibacterial activity against Salmonella typhimurium ATCC 1255 assessed as reduction in bacterial growth; assay type: functional, Salmonella enterica subsp. enterica serovar Typhimurium; settings: Salmonella enterica
# Chain of Acetylcholinesterase (P22303 whole entry): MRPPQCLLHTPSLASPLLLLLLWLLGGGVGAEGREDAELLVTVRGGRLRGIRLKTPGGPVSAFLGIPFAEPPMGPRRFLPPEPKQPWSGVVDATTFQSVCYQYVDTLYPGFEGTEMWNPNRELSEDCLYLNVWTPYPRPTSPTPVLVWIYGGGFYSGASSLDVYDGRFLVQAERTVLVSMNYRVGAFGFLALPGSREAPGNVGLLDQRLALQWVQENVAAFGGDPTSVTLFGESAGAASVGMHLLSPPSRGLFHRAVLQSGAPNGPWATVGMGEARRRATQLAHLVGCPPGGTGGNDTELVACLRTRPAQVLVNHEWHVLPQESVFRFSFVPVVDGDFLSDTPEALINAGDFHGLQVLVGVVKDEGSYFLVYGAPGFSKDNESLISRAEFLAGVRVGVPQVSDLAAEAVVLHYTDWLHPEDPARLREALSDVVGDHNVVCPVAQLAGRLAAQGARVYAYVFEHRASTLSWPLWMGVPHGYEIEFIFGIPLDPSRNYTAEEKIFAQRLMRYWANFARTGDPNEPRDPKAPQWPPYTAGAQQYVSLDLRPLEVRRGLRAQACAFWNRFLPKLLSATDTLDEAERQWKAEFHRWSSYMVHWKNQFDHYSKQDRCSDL
smiles,measurement,setting,value
C=CCNCC(O)COc1ccc2c(=O)c3cccc(C)c3oc2c1 (centres undefined),MIC,Staphylococcus aureus [1],< 20 µg/mL
O=C1c2ccccc2C(=O)c2c(O)c(O)cc(O)c21 [PURPURIN],IC50,Acetylcholinesterase,0.3 µM
Cc1cc(O)c2c(c1)C(=O)c1cc(O)cc(O)c1C2=O [EMODIN],MIC,Pseudomonas aeruginosa [2],> 128 µg/mL
same,MIC,Escherichia coli [3],> 128 µg/mL
same,MIC,Haemophilus parasuis,32 µg/mL
same,MIC,[4],0.9 µg/mL
same,MIC,Staphylococcus aureus [5],64 µg/mL
same,MIC,Staphylococcus aureus [6],20 µg/mL
same,MIC,Pseudomonas aeruginosa [7],> 128 µg/mL
same,MIC,Staphylococcus aureus [8],0.125 µg/mL
same,MIC,Bacillus subtilis,8 µg/mL
same,MIC,Bacillus cereus [9],16 µg/mL
same,MIC,Salmonella typhimurium [10],128 µg/mL
same,MIC,Streptococcus suis,0.125 µg/mL
same,MIC,Bacillus sp.,0.5 µg/mL
same,MIC,Pseudomonas aeruginosa [11],128 µg/mL
same,MIC,Staphylococcus aureus [12],4 µg/mL
COc1cc(O)c2c(c1)C(=O)c1cc(C)cc(O)c1C2=O [PHYSCION],MIC,Staphylococcus aureus [6],90 µg/mL
COc1cc(C=O)c2c(=O)c3ccccc3oc2c1O,MIC,Pseudomonas aeruginosa [13],32 µg/mL
CC1=CC2c3c(O)c(O)c4oc5cc(O)cc(O)c5c(=O)c4c3[C@H](c3cc(O)c(O)c4oc5cc(O)cc(O)c5c(=O)c34)C2C(C)(C)C1 (some centres undefined),MIC,Staphylococcus aureus [14],3.9 µg/mL
same,MIC,Vibrio campbellii,15.6 µg/mL
same,MIC,Staphylococcus aureus [15],3.9 µg/mL
same,MIC,Vibrio rotiferianus,15.6 µg/mL
COC1=CC(=O)c2c(O)c3c(c(O)c2C1=O)CC(C)(O)C(OC(C)=O)C3 (centres undefined),MIC,Bacillus cereus [16],0.0088 µM
COc1c(O)c(C=O)cc2c(=O)c3ccccc3oc12,MIC,Pseudomonas aeruginosa [13],32 µg/mL
CN(CCC(O)COc1cccc2c(=O)c3ccc(Cl)cc3oc12)C(C)(C)C (centres undefined),MIC,Staphylococcus aureus [1],< 20 µg/mL
COc1ccccc1CNCCC(O)COc1cccc2c(=O)c3ccccc3oc12 (centres undefined),MIC,Staphylococcus aureus [1],< 20 µg/mL
COc1cc2oc3cc(O)c(OC)c(CC=C(C)C)c3c(=O)c2c(O)c1CC=C(C)C,MIC,Staphylococcus aureus [17],3.13 µg/mL
same,MIC,Enterococcus faecium [18],6.25 µg/mL
same,MIC,Enterococcus faecium [19],6.25 µg/mL
same,MIC,Staphylococcus aureus [20],6.25 µg/mL
Cc1cccc2c(=O)c3ccc(OCC(O)CNC(C)C)cc3oc12 (centres undefined),MIC,Staphylococcus aureus [1],< 20 µg/mL
CN(CCO)CC(O)COc1cccc2c(=O)c3ccccc3oc12 (centres undefined),MIC,Staphylococcus aureus [1],< 20 µg/mL
Cc1cc(O)c2c(c1)C(=O)c1cccc(O)c1C2=O [CHRYSOPHANOL],MIC,Escherichia coli [21],125 µg/mL
same,MIC,Epidermophyton floccosum,625 µg/mL
same,inhibition zone (IZ),Pseudomonas aeruginosa [22],18 mm
same,MIC,Candida albicans,50 µg/mL
same,MIC,Bacillus cereus [23],> 250 µg/mL
same,inhibition zone (IZ),Escherichia coli [24],18 mm
same,MIC,Pseudomonas aeruginosa [25],128 µg/mL
same,MIC,Vibrio harveyi,1000 µg/mL
same,MIC,Staphylococcus aureus [6],90 µg/mL
same,MIC,[26],> 250 µg/mL
same,MIC,Aeromonas hydrophila [27],200 µg/mL
same,MIC,Escherichia coli [28],3.13 µg/mL
same,MIC,[29],64 µg/mL
same,MIC,Cryptococcus neoformans,50 µg/mL
same,MIC,Trichophyton rubrum,156 µg/mL
same,MIC,Proteus vulgaris,128 µg/mL
same,MIC,Klebsiella aerogenes,> 250 µg/mL
same,MIC,Aeromonas hydrophila [30],200 µg/mL
same,MIC,Neisseria gonorrhoeae,75 µg/mL
same,MIC,Rothia kristinae,> 250 µg/mL
same,MIC,Staphylococcus aureus [31],> 250 µg/mL
COc1cc2c(c(O)c1OC)c(=O)c1ccc(O)cc1n2C,diameter of the inhibition zone (DIZ),Staphylococcus aureus [32],9.58 mm
CCCOc1ccc(N2CCCCC2)c2c(=O)c3ccccc3sc12,MIC,Pseudomonas aeruginosa [13],32 µg/mL
O=C1c2cccc(O)c2C(=O)c2c(O)cc(CO)cc21 [ALOE-EMODIN],MIC,Staphylococcus aureus [33],4 µg/mL
same,MIC,Salmonella,250 µg/mL
same,MIC,Escherichia coli [34],125 µg/mL
same,MIC,Porphyromonas gingivalis,2.5 µg/mL
same,MIC,Streptococcus mutans,6.25 µg/mL
COc1cc(C)c2c(c1[C@@H]1O[C@@H](CO)C(O)[C@@H](O)[C@@H]1OC(=O)/C=C\c1ccc(O)cc1)CC(CC(C)=O)=CC2=O (some centres undefined),MIC,Staphylococcus aureus [35],0.72 µM
same,MIC,Salmonella typhimurium [36],0.18 µM
COC1=CC(=O)c2c(cc3c(c2O)CC(O)C(C)(O)C3)C1=O (centres undefined),MIC,Bacillus cereus [16],0.312 µM
